Among the data in paper PMC2992954 (Molecular bioSystems, 2009) are IC50 values, retold here.

The test concerns the target Sfp-PPTase (Bacillus subtilis, UniProt P39135). Nature of the test: Rhodamine/BHQ-2 dark quench assay. It is filed as biochemical.

Where a name gives a salt, the structure may show the parent alone.

Sfp-PPTase, sequence (P39135 whole entry): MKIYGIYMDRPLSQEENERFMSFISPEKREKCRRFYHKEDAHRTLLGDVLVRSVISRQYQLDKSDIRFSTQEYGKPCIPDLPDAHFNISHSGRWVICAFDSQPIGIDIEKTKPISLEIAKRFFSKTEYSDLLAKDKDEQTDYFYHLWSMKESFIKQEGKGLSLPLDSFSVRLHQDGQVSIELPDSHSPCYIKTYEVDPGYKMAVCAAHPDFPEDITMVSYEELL

Turning to `Nc1ncnc2c1ncn2[C@@H]1O[C@H](COP(=O)(O)O)[C@@H](OP(=O)(O)O)[C@H]1O` [PAP 3, adenosine 3′, 5′-diphosphate sodium salt], half-maximal inhibition (IC50) was put at 14.6 µM.

By IC50 is commonly meant the concentration needed to halve the response being measured.
